The source of these data is EPA's ToxValDB 9.5 (doi:10.2903/j.efsa.2005.43r).

One data set deals with Anas platyrhynchos. The following applies: reproductive.
The subject of another data set is Apis mellifera. The following applies: acute, duration: 24 hours, mortality.
The subject of another data set is Canidae. The following applies: chronic; duration: 1 years; oral; Dog Other; hematological.
A further data set relates to Colinus virginianus. The conditions noted are these: acute, oral, mortality.
A further data set has as its system Daphnia magna. The conditions noted are these: chronic/long-term; duration: 21 days; reproduction.
The next data set deals with Oncorhynchus mykiss. The following applies: acute; duration: 96 hours; mortality.
Another data set deals with Pimephales promelas. The conditions noted are these: chronic/long-term; duration: 36 days.
Another data set relates to Tagia sp. The following applies: acute; duration: 14 days; mortality.
In a further data set the test system is Mesograpta sp. As to the kind of experiment: LR50; higher = less toxic. The following applies: chronic/long-term, mortality.

≈ marks a conversion by molar mass, not a printed value.

For `Cc1nc(N(C)C)nc(OC(=O)N(C)C)c1C` [Pirimicarb], the NOEC in the data set on Anas platyrhynchos was 12.1 mg/kg-day; in the data set with Daphnia magna it was 0.0009 mg/L; in the data set with Pimephales promelas it was 10 mg/L; with Rattus norvegicus (reproduction developmental), 81.8 mg/kg-day. Also, the LD50 in the data set with Apis mellifera (dermal) is 53.1 µg/piece; with Apis mellifera (oral, unspecified) it was 4 µg/piece; in the data set on Colinus virginianus (gavage), 20.9 mg/kg; with Rattus norvegicus (acute, oral, F, mortality), 142 mg/kg. The NOAEL in the data set with Canidae was found to be 3.5 mg/kg-day; with Rattus norvegicus (acute, oral, gavage, clinical signs), 10 mg/kg-day. Further, the LC50 in the data set on Colinus virginianus (duration: 5 days, diet) was 394 mg/kg-day; in the data set on Oncorhynchus mykiss it was 79 µg/mL (≈ 332 µM); in the data set with Tagia sp., above 60 mg/kg. Further, the LR50 in the data set on Mesograpta sp. (duration: 16 days) and in the data set with Mesograpta sp. (duration: 28 days) was 14.6 g/ha each time.

What is called NOAEL is the highest tested level that showed no adverse finding.
